Laboratory results published in US10709707B2, “Methods of treating ocular conditions” (Oyster Point Pharma, Inc., priority 2016, dated 2020).
Values joined by “and” are separate entries in the source; they are usually repeats but may differ in a detail not shown here. Identical values can stand only once. “Also recorded” adds a separate entry of the source.

What was measured:
[1] = 2-week and 13-week repeated dose TK studies, monkey; type: in vivo; conditions: for emesis: 100 mg/kg/day
Description: In 2-week and 13-week repeated dose TK studies in monkey, animals were dosed orally at 10, 30 or 100 mg/kg/day (2-week study) or at 10, 30 or 60 mg/kg/day (13-week study). […] In the 2-week study, exposure increased roughly proportional to dose from 10 to 30 mg/kg/day on Days 1 and 14 and less than proportionally from 30 to 100 mg/kg/day on Days 1 and 14; emesis in the 100 mg/kg/day dose group, 6/6 animals on Day 1 and 5/6 animals on Day 14, may have contributed to this. There was little accumulation in any dose group from Day 1 to Day 14.

muscarinic M4 = target: T1, muscarinic M4 (Homo sapiens, UniProt P08173); assay: Follow-up dose response binding assay (CEREP)
T1 construct: CEREP (contract laboratory, per the earlier reading)

[2] = Clinical studies with oral formulation; type: in vivo
From the text: The drug substance for Compound 1 nasal spray was previously used in clinical trials as an oral formulation. […] Compound 1 is re-formulated as a nasal spray.

plasma protein binding = type: in vitro ADME; conditions: mouse, rat, guinea pig, dog, monkey and human plasma; concentrations up to about 113 μM
[3] = target: T2, α4β2 nicotinic acetylcholine receptor (Rattus norvegicus, UniProt P09483+P12390); assay: Receptor binding α4β2, inhibition of [3H]-(S)-nicotine binding, rat brain membranes
T2 construct: from tissue; host or cells: rat brain cortical membranes

a6/a3b2b3 = a6/a3b2b3 (Homo sapiens, UniProt P17787+P32297+Q15825); assay: Receptor function a6/a3b2b3, Ca++ flux; type: cell-based
[4] = Solubility in aqueous solutions; type: physicochemical
[5] = target: T3, ganglionic receptor (α3β4) (Homo sapiens, UniProt P30926+P32297); assay: Receptor binding ganglionic receptor, SH-SY5Y membranes
T3 construct: endogenous in cells

[6] = 13-week repeat-dose oral toxicity in rats; type: in vivo, rat
Description: Compound 1 was given to rats once daily for at least 13 weeks via oral gavage at doses of 30, 100, or 300 mg/kg/day. Two of 15 females receiving 300 mg/kg/day died. Clinical signs in males and females in this high-dose group included; reduced food consumption, anogenital staining, lacrimation, chromodacryorrhea, and tremors. Laboratory results included marginally lower RBC mass that correlated with elevated reticulocyte counts with recovery; elevated liver enzymes and bilirubin throughout the dosing period, with evidence of resolution during recovery urinary changes, including increased urine volume, elevated urinary protein, and higher bilirubin and urobilinogen, with resolution during recovery. Rats receiving doses of 100 mg/kg/day and higher had clinical signs that included excessive salivation, tan brown muzzle, closed or partially closed eyelids, and reduced body weight. Laboratory results included elevated WBC (lymphocytes and neutrophils), with recovery; elevated bilirubin; and a slight decrease in total serum protein (globulins and albumin). […] At doses ≥100 mg/kg/day, microscopic findings of centrilobular hepatocellular hypertrophy, medullary adrenal gland cell hypertrophy, mucosal epithelial cell hyperplasia of the small intestine, and increased extramedullary hematopoiesis and hemosiderin deposits in the red pulp of the spleen were observed. […] Accordingly, the NOAEL was considered to be 30 mg/kg/day. […] AUC and Cmax increased between Day 1 and Day 29.

[7] = target: T3, ganglionic receptor (α3β4); assay: Receptor function ganglionic receptors (human), SH-SY5Y and IMR-32 cells; type: cell-based
formalin test = assay: Analgesic effects, formalin test; type: in vivo, Mouse: CD-1; conditions: po; Compound 1 0.1, 1 and 10 mg/kg, Aspirin 100 mg/kg, Morphine 30 mg/kg
[8] = system: cultured human peripheral blood lymphocytes; assay: chromosome aberration assay; type: cell-based; conditions: in vitro
From the text: Compound 1 was negative for mutagenicity in both in vitro bioassays—including an Ames test, a micronucleus test in mouse lymphoma cells, and a chromosome aberration assay using cultured human peripheral blood lymphocytes—and an in vivo rat bone marrow micronucleus test.

muscle receptor (α1β1δγ) = target: T4, muscle receptor (α1β1δγ) (Homo sapiens, UniProt P02708+P07510+Q07001); assay: Receptor binding muscle receptor, TE-671 membranes
T4 construct: endogenous in cells; host or cells: TE671 (TE-671) cells / membranes (per the earlier reading)

[9] = system: pentylenetetrazole convulsions; assay: CNS safety pharmacology, convulsant properties with subconvulsant pentylenetetrazole; type: in vivo, Rat: Sprague-Dawley
[10] = female, rat, in vivo, po, 30 mg/kg/day
[11] = male, rat, in vivo, po, 30 mg/kg/day
[12] = Human ganglion-type (a3b4*), Ca++ Flux

T3 sequence (P32297 32-505): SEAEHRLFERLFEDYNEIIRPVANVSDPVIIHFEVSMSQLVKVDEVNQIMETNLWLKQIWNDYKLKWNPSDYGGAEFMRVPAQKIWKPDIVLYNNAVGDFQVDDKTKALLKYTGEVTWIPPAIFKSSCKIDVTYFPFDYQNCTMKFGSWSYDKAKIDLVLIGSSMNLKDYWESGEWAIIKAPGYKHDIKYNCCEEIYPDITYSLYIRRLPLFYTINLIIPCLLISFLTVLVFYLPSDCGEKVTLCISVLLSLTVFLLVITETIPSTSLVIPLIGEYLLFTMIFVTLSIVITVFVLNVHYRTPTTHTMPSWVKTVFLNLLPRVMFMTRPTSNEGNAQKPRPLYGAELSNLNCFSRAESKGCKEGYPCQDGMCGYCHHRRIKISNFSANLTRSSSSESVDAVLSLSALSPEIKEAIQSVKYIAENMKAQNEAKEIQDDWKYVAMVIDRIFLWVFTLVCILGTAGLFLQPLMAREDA
T3 sequence (P30926 22-498): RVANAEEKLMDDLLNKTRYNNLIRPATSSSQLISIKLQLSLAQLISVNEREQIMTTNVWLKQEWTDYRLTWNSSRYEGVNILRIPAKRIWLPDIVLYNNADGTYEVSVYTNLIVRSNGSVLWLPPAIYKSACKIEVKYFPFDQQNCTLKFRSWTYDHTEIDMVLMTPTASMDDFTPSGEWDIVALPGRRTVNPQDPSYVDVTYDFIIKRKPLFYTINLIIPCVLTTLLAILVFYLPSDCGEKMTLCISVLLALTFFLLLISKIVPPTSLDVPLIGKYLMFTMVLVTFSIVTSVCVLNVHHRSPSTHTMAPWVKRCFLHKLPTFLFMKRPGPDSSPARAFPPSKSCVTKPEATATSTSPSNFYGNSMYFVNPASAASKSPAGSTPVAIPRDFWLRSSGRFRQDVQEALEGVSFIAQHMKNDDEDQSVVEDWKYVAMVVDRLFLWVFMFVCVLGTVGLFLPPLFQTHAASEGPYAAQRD
Sequence of a6/a3b2b3 (Q15825+P32297 fused with the stated changes): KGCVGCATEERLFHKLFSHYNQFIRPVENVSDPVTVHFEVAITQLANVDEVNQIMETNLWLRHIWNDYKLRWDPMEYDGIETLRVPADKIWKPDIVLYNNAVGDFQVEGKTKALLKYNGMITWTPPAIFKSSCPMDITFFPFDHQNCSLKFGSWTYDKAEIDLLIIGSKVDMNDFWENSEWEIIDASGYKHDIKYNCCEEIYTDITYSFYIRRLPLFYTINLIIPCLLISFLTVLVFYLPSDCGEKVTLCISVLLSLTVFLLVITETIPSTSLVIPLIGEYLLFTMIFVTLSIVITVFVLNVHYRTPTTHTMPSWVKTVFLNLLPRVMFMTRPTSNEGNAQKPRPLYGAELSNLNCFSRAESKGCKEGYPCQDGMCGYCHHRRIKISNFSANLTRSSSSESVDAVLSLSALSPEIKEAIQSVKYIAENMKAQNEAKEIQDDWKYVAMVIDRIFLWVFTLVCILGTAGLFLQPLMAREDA
Sequence of a6/a3b2b3 (P17787 26-502): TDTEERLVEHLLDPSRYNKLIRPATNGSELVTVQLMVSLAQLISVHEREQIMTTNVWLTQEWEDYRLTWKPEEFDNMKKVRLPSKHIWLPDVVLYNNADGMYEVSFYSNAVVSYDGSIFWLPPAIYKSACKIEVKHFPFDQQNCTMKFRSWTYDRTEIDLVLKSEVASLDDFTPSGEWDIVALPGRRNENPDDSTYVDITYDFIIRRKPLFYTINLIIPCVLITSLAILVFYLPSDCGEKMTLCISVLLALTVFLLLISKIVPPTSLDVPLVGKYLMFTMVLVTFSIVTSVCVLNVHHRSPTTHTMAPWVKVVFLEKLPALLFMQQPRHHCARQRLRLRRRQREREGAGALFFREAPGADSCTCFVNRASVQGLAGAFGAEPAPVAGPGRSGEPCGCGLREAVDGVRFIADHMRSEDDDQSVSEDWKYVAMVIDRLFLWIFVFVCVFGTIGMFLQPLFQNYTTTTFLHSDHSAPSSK
Sequence of a6/a3b2b3 (Q05901 25-458 partner limits assumed): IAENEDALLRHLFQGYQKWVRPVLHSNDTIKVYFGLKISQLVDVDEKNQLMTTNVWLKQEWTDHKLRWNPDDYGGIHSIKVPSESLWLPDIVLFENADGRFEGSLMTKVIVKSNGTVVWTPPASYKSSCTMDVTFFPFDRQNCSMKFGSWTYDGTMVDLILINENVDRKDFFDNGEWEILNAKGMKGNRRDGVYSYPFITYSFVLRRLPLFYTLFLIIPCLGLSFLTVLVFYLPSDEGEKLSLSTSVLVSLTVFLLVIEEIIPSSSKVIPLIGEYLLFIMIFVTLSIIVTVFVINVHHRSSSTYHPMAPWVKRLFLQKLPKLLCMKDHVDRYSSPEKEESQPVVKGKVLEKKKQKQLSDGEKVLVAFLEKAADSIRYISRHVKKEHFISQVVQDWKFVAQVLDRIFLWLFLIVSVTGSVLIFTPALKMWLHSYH
T2 sequence (P09483 31-630): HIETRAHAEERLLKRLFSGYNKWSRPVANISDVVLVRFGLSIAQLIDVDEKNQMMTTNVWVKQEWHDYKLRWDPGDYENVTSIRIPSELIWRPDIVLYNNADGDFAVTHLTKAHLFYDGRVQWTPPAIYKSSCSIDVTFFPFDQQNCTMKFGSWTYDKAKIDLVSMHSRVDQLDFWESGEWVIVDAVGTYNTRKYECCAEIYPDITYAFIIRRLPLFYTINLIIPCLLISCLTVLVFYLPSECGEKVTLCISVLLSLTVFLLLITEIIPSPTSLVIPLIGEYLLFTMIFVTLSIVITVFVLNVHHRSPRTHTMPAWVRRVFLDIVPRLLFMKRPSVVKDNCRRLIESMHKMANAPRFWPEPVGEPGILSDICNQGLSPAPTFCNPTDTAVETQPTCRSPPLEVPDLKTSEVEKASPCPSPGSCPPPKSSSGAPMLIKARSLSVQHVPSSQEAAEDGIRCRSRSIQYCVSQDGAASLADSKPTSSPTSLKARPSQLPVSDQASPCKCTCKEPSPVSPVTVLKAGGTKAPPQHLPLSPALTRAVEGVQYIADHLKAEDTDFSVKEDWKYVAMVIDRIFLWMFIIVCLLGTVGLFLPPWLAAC
T2 sequence (P12390 25-500): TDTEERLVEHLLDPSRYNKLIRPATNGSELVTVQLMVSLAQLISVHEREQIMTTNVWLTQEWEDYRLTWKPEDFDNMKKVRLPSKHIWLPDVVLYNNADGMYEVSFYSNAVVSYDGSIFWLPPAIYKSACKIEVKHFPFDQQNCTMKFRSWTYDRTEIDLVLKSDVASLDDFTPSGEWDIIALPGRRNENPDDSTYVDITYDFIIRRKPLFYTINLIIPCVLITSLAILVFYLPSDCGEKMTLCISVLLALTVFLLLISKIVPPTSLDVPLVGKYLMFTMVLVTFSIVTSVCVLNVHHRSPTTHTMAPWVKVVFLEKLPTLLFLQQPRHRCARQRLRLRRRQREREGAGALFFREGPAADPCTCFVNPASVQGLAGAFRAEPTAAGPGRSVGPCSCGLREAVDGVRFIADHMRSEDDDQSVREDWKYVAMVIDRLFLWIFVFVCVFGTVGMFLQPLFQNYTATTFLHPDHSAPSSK
T1 sequence (P08173 whole entry): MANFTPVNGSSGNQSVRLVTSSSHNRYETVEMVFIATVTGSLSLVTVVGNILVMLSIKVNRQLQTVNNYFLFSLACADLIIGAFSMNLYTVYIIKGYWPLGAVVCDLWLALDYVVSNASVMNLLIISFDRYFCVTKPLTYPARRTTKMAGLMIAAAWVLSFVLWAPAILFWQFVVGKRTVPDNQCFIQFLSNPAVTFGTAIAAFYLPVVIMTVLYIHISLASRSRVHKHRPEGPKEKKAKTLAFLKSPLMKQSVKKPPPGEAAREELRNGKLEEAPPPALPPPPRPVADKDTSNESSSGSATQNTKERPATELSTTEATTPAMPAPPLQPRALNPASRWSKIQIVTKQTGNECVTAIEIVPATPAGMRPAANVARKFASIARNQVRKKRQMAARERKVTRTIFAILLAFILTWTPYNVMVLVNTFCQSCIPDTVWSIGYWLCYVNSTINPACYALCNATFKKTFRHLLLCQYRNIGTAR

For `C(=C\[C@H]1CCNC1)/c1cncnc1` [Compound 1, (R)-5-((E)-2-pyrrolidin-3-ylvinyl)pyrimidine], the emesis ([1]; Day 1, 2-week study) was 6/6, the emesis ([1]; Day 14, 2-week study) was 5/6 and the Tmax ([1]; both sexes, cynomolgus, monkey, in vivo, oral 10-100 mg/kg/day, 2-week and 13-week studies) was 0.5 to 6 h. The accumulation ([1]; either study) was “Little to no accumulation”, the gender effect ([1]; either study) was “no gender effect” and the Ki (muscarinic M4) was 5.8 µM. For the same molecule, the “efficacy in clinical studies” value [2] was “failed to reach efficacy endpoints”, the “safety in clinical studies” value [2] was “considered safe” and the fraction unbound (plasma protein binding) was > 0.87. The Ki ([3]; Rat a4b2, assay and tissue type not given) was 0.034 µM, the Ki ([3]; [3H]-S-nicotine, rat brain cortical membranes) was 0.027 µM and the “(Imax)” value (a6/a3b2b3; Human a6/a3b2b3) was 49. For the same molecule, the IC50 (a6/a3b2b3; Human a6/a3b2b3) was 2.8 µM, the DC50 (a6/a3b2b3; Human a6/a3b2b3, Ca++ Flux) was 0.031 µM and the Dmax (a6/a3b2b3; Human a6/a3b2b3, Ca++ Flux) was 99%. For the same molecule, the EC50 (a6/a3b2b3; Human a6/a3b2b3, Ca++ Flux) was 0.47 µM, the Emax (a6/a3b2b3; Human a6/a3b2b3, Ca++ Flux) was 92% and the solubility ([4]; 0.1N HCl, simulated gastric fluid) was > 10000 µg/mL. The solubility ([4]; Water (pH 5.9)) was > 10000 µg/mL, the solubility ([4]; aqueous buffer, 0.1M citrate buffer (pH 4.0)) was > 10000 µg/mL and the solubility ([4]; aqueous buffer, 0.1M phosphate buffer (pH 6.8)) was > 10000 µg/mL. The Ki ([5]; Human ganglion-type (a3b4*), assay and tissue type not given) was 8.8 µM, the Ki ([5]; [3H]-epibatidine, SH-SY5Y membranes) was 0.6 µM and 0.62 µM and the NOAEL at 13 weeks ([6]; both sexes, in vivo, 13-week rat study, oral, as summarised) was 30 mg/kg. For the same molecule, the Tmax ([6]; both sexes, rat, in vivo, po) was 0.5 to 2 h, the NOAEL at 13 weeks ([6]; both sexes, rat, in vivo, rats, oral gavage once daily, 13 weeks) was 30 mg/kg/day and the AUC [6, 10] was 10200 ng·h/mL. The Cmax [6, 10] was 3150 ng/mL, the deaths ([6]; females, 300 mg/kg/day) was “Two of 15” and the “incidence of minimal hepatocellular hypertrophy” value ([6]; male, rat, in vivo, 30 mg/kg/day, 13 weeks) was 7 of 10. The AUC [6, 11] was 12100 ng·h/mL, the Cmax [6, 11] was 2570 ng/mL and the EC50 [7, 12] was 13 µM. For the same molecule, the Emax [7, 12] was 150%, the EC50 ([7]; IMR-32 cells) was 22 µM and the EC50 ([7]; Rb+ Flux, IMR cells) was 22 µM. For the same molecule, the Emax ([7]; Rb+ Flux, IMR cells) was 79%, the EC50 ([7]; Rb+ Flux, SHSY5Y cells) was 18 µM and the EC50 ([7]; SH-SY5Y cells) was 18 µM. For the same molecule, the Emax vs. nicotine ([7]; SH-SY5Y cells) was 60%, the Emax ([7]; SH-SY5Y, Rb+ Flux, SHSY5Y cells) was 60% and the agonist type ([7]; α3β4 nicotine receptor subtype) was “full agonist”. For the same molecule, the “analgesic effects after formalin injection, Day 1” value (formalin test) was “mg/kg) and Aspirin at 100 mg/kg failed”, the “mutagenicity, chromosome aberration assay” value [8] was “negative” and the Ki (muscle receptor (α1β1δγ)) was 36 µM. For the same molecule, the “convulsions in combination with subconvulsant pentylenetetrazole” value ([9]; 10, 30, 100 mg/kg po) was “no noteworthy changes; also recorded: not did not induce convulsions. D-” and the “NOEL, convulsant properties” value ([9]; po with pentylenetetrazole) was “The NOEL was 100 mg/kg”.
